Test results reported in patent US7595401B2, “Therapeutic compounds and their use in cancer” (Myriad Pharmaceuticals, Inc., priority 2006, dated 2009).

What follows are molecules tested on Luciferase refolding (assay: Luciferase refolding assay). Settings: compound fluorescent in FP binding assay.
Format: biochemical
Parameters: key: *Compound is active in Luciferase refolding assay

Row | active in Luciferase refolding assay (asterisk footnote) | Structure (SMILES)
1 | *Fluorescent | CC(C)(C)OC(=O)N1CCOC(CCn2cnc(N)c3nc(Sc4cc5c(cc4Br)OCO5)nc2-3)C1 (centres unmarked) [Example 368, tert-Butyl 2-(2-{6-amino-8-[(6-bromo-1,3-benzodioxol-5-yl)thio]-3H-purin-3-yl}ethyl)morpholine-4-carboxylate]
2 | *Fluorescent | COc1ccc(OC)c(Sc2nc3c(N)ncnc3n2CCC(NC(=O)OC(C)(C)C)C2CC2)c1 (centres unmarked) [Example 664, tert-Butyl(3-{6-amino-8-[(2,5-dimethoxyphenyl)thio]-9H-purin-9-yl}-1-cyclopropylpropyl)carbamate]
3 | *Fluorescent | CC(C)NC(=O)NC(CCn1c(Sc2cc3c(cc2Br)OCO3)nc2c(N)ncnc21)C1CC1 (centres unmarked) [Example 678, N-(3-{6-Amino-8-[(6-bromo-1,3-benzodioxol-5-yl)thio]-9H-purin-9-yl}-1-cyclopropylpropyl)-N′-isopropylurea]

Row | Structure (SMILES) | active in Luciferase refolding assay (asterisk footnote)
4 | Nc1ncn(CCC2(F)C(F)(F)C(F)(F)C(F)(F)C(F)(F)C2(F)F)c2nc(Sc3cc4c(cc3Br)OCO4)nc1-2 [Example 377, 8-[(6-Bromo-1,3-benzodioxol-5-yl)thio]-3-[2-(undecafluorocyclohexyl)ethyl]-3H-purin-6-amine] | *Fluorescent

The molecules below were run on purified human Hsp90 (assay: Binding Assay: fluorescence polarization with BODIPY-labeled geldanamycin). Settings: 5 μM compound, BODIPY-GM 10 nM, Hsp90 30 nM.
Procedure, shortened: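 Compounds in 2% DMSO final compete with 10 nM BODIPY-GM for 30 nM purified human Hsp90, incubated overnight at room temperature in pH 7.3 HEPES buffer containing Na2MoO4 and DTT. Polarization (mP, ex/em 485/530) normalized to DMSO gives percent inhibition; autofluorescence-confounded data excluded.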

Row | % Inhibition at 5 μM Compound Concentration [%] | Structure (SMILES)
5 | 43.00 | C[C@H](NC(=O)OC(C)(C)C)C(=O)N1CCCC(Cn2cnc(N)c3nc(Sc4cc5c(cc4Br)OCO5)nc2-3)C1 (stereo partly drawn) [Example 779, tert-butyl {(1S)-2-[3-({6-amino-8-[(6-bromo-1,3-benzodioxol-5-yl)thio]-3H-purin-3-yl}methyl)piperidin-1-yl]-1-methyl-2-oxoethyl}carbamate]

Same assay, conditions: BODIPY-GM 10 nM, Hsp90 30 nM

Row | IC50 [nM] | Structure (SMILES)
6 | > 5000 | C[C@H](NC(=O)OC(C)(C)C)C(=O)N1CCC(CCn2c(Br)nc3c(N)ncnc32)CC1 [Example 772, tert-Butyl ((1S)-2-{4-[2-(6-amino-8-bromo-9H-purin-9-yl)ethyl]piperidin-1-yl}-1-methyl-2-oxoethyl)carbamate]
7 | 390 | C[C@H](NC(=O)OC(C)(C)C)C(=O)N1CCC(CCn2c(Sc3nc4cccc(Cl)c4s3)nc3c(N)ncnc32)CC1 [Example 773, tert-Butyl {(1S)-2-[4-(2-{6-amino-8-[(7-chloro-1,3-benzothiazol-2-yl)thio]-9H-purin-9-yl}ethyl)piperidin-1-yl]-1-methyl-2-oxoethyl}carbamate]
8 | 200 | C[C@H](N)C(=O)N1CCC(CCn2c(Sc3nc4cccc(Cl)c4s3)nc3c(N)ncnc32)CC1 [Example 774, 9-(2-{1-[(2S)-2-Aminopropanoyl]piperidin-4-yl}ethyl)-8-[(7-chloro-1,3-benzothiazol-2-yl)thio]-9H-purin-6-amine]

The remaining lines, values behind:

Row | Structure (SMILES) | IC50 [nM]
9 | C[C@H](O)C(=O)N1CCC(CCn2c(Sc3nc4cccc(Cl)c4s3)nc3c(N)ncnc32)CC1 [Example 775, (2S)-1-[4-(2-{6-Amino-8-[(7-chloro-1,3-benzothiazol-2-yl)thio]-9H-purin-9-yl}ethyl)piperidin-1-yl]-1-oxopropan-2-ol] | 1800
10 | CC(=O)N1CCC[C@H]1C(=O)N1CCC(CCn2c(Sc3cc4c(cc3Br)OCO4)nc3c(N)ncnc32)CC1 [Example 776, 9-{2-[1-(1-Acetyl-L-prolyl)piperidin-4-yl]ethyl}-8-[(6-bromo-1,3-benzodioxol-5-yl)thio]-9H-purin-6-amine] | 310
11 | C[C@H](NC(=O)OC(C)(C)C)C(=O)N1CCCC(Cn2c(Sc3cc4c(cc3Br)OCO4)nc3c(N)ncnc32)C1 (stereo partly drawn) [Example 778, tert-Butyl {(1S)-2-[3-({6-amino-8-[(6-bromo-1,3-benzodioxol-5-yl)thio]-9H-purin-9-yl}methyl)piperidin-1-yl]-1-methyl-2-oxoethyl}carbamate] | 2000
